Laboratory results published in US9452994B2, “Manufacturing process for pyrimidine derivatives” (Novartis AG, priority 2010, dated 2016).

Test: moisture uptake of solid forms at given relative humidity
Assay type: physicochemical

Cl.Nc1cc(C(F)(F)F)c(-c2cc(N3CCOCC3)nc(N3CCOCC3)n2)cn1.O [5-(2,6-Di-4-morpholinyl-4-pyrimidinyl)-4-(trifluoromethyl)pyridin-2-amine monohydrate monohydrochloride]
moisture uptake (75% relative humidity): 4.4%
moisture uptake (95% relative humidity): 4.9%

5-(2,6-Di-4-morpholinyl-4-pyrimidinyl)-4-trifluoromethylpyridin-2-amine hemihydrate
moisture uptake (25% relative humidity): 1.9%

Cl.Nc1cc(C(F)(F)F)c(-c2cc(N3CCOCC3)nc(N3CCOCC3)n2)cn1 [5-(2,6-Di-4-morpholinyl-4-pyrimidinyl)-4-(trifluoromethyl)pyridin-2-amine monohydrochloride]
hygroscopicity (in words): only slightly hydroscopic
maximum moisture uptake (25° C., up to 92% relative humidity): less than 0.1%

Nc1cc(C(F)(F)F)c(-c2cc(N3CCOCC3)nc(N3CCOCC3)n2)cn1 [5-(2,6-Di-4-morpholinyl-4-pyrimidinyl)-4-trifluoromethylpyridin-2-amine]
moisture uptake (85% relative humidity): 8.9%
